Measured values taken from patent publication US9440987B2, “Aromatic ring compound” (TAKEDA PHARMACEUTICAL COMPANY LIMITED, priority 2012, dated 2016).

What was measured:
[1] = biological target: T1, human MCHR1 (Homo sapiens, UniProt Q99705); experiment: MCH receptor 1 antagonistic activity, Ca2+ mobilization assay in human MCHR1-expressing CHO cells (clone #4); type: cell-based; settings: test compound 0.1 μM, ligand MCH(4-19) 2 nM, read-out: Inhibition rate % (0.1 μM)
T1 construct: expressed in transfected cells; host or cells: CHO cell clone 57 (membrane fraction)
Protocol: Measurement of MCH Receptor 1 Antagonistic Activity of Test Compound Using Ca^2+ Mobilization Assay
Using an expression vector plasmid introduced with human MCHR1 gene for expression in animal cells, human MCHR1 gene was introduced into CHO cells (CHO dhfr^−) by Lipofectamine LTX (Invitrogen). The cells were cultured in selection MEMα medium [445 mL of MEMα medium without nucleic acid and added with 5 mL of Penicillin-Streptomycin (Invitrogen) and 50 mL of dialyzed fetal bovine serum]. Colony 24 clones grown in the selection medium, which were human MCHR1 gene-expressing CHO cell candidates, were selected. […] In the following test, this human MCHR1-expressing CHO cell (clone #4) was used. An integrated dispensing function fluorometer (CellLux, PerkinElmer) was used for Ca^2+ mobilization assay. The CHO cells were sown in a 96 well plate (type 3904, Corning) with a black wall and clear well bottom at a density of 20000 cells/well, and cultured in an incubator for about 24 hr at 5% CO2, 37° C. The medium was removed, and the cells were washed with phosphate buffered saline (PBS). A Ca^2+ indicator dye reagent (DOJINDO LABORATORIES, Ca screening no-wash kit Fluo4) was added at 100 μL/well, and the dye was allowed to penetrate into the cell for 30 min in an incubator at 5% CO2, 37° C. The plate was set on a plate reader. First, a test compound solution diluted with an assay buffer [10 mM HEPES (pH 7.4), 1× assay buffer containing 0.1% BSA (DOJINDO LABORATORIES, attached to Ca screening no-wash kit Fluo4)] or DMSO solution was added at 50 μL/well, and then ligand MCH (4-19) peptide (final concentration 2 nM) diluted with assay buffer or DMSO was added at 50 μL/well, during which changes in intracellular fluorescence were measured at 2 second intervals. […]
The inhibition rates (%) of test compounds (0.1 μM) as antagonist activity measured using human MCHR1-expressing CHO cells (clone #4) are shown in the following Table 3.

[2] = biological target: T1, human MCHR1; experiment: Human MCH receptor 1 (MCHR1) binding inhibitory activity, [125I]-MCH(4-19) binding assay with MCHR1-expressing CHO cellular membrane fraction; settings: test compound 0.1 μM, human MCHR1-expressing CHO cell membrane, read-out: Binding inhibition rate % (0.1 μM)
Protocol: Using human MCHR1(=SLC-1 receptor)-expressing CHO cell clone 57 described in WO01/82925, MCHR1-expressing CHO cellular membrane fractions were prepared by the following method. […] Homogenate buffer (10 mL, 10 mM NaHCO3, 5 mM EDTA, pH 7.5, 0.5 mM PMSF (phenylmethylsulfonyl fluoride), 20 mg/L leupeptin, 4 mg/L E-64, 1 mg/L pepstatin A) was added to the pellets of the cells and, using Polytron Homogenizer, the mixture was homogenated. The supernatant obtained after centrifugation at 400×g for 10 min was further centrifuged at 100,000×g for 1 hr to give precipitate of the membrane fraction. The precipitate were suspended in 2 mL of assay buffer [20 mM Tris-HCl (pH 7.5), 5 mM EDTA, 0.5 mM PMSF, 20 mg/L leupeptin, 4 mg/L E-64, 1 mg/L pepstatin A]. The membrane fractions were suspended in assay buffer to a protein concentration of 2 mg/mL, and after dispensing, preserved at −80° C. and used upon thawing each time when in use. The MCHR1 ligand binding inhibitory activity of the test compound was determined as follows. An MCHR1-expressing CHO cellular membrane fraction (173 μL) diluted with an assay buffer was dispensed to a 96 well polypropylene plate (3363, Corning). […] Using a treating glass filter plate (GF/C, PerkinElmer) with polyethyleneimine, which had been previously set, the plate was suction-filtered and washed three times with washing buffer (50 mM Tris-HCl buffer pH 7.5). The glass filter plate was dried, MicroScinti0 (PerkinElmer) was added at 25 μL/well, and the resulting radioactivity was measured by TopCount liquid scintillation counter (PerkinElmer). The binding inhibition rate of the test compound was calculated by the following formula.

T1 sequence (Q99705 whole entry): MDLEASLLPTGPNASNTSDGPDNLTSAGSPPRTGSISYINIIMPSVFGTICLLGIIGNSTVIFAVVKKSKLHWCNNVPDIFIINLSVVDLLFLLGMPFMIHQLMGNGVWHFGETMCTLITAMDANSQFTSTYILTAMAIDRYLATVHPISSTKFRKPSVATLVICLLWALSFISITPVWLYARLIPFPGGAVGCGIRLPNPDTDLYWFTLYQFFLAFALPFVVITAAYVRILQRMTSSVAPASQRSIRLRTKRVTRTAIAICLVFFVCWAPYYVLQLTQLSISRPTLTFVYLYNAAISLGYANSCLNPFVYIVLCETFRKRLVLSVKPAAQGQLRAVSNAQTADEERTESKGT

| inhibition at 0.1 µM [1] [%] | inhibition at 0.1 µM [2] [%] | Compound |
| --- | --- | --- |
| 92 | 74 | Cc1c(C2CC2)nc2ccc(-n3ccc4oc(-c5ccc(Cl)cn5)cc4c3=O)cn12 [Example 3, 2-(5-Chloropyridin-2-yl)-5-(2-cyclopropyl-3-methylimidazo[1,2-a]pyridin-6-yl)furo[3,2-c]pyridin-4(5H)-one] |
|  | 91 | Cn1c([C@H]2C[C@H]2C(C)(C)O)nc2ccc(-n3ccc4oc(-c5ccc(Cl)cc5)cc4c3=O)cc21 (racemic) [Example 4, 2-(4-Chlorophenyl)-5-(2-((1RS,2SR)-2-(2-hydroxypropan-2-yl)cyclopropyl)-1-methyl-1H-benzimidazol-6-yl)furo[3,2-c]pyridin-4(5H)-one] |
| 70 | 79 | Cn1c(C2CC2)nc2ccc(-n3ccc4oc(-c5ccc(Cl)cc5)cc4c3=O)cc21 [Example 2, 2-(4-Chlorophenyl)-5-(2-cyclopropyl-1-methyl-1H-benzimidazol-6-yl)furo[3,2-c]pyridin-4(5H)-one] |
| 82 | 100 | Cc1c(C2CC2)nc2ccc(-n3ccc4oc(-c5ccc(Cl)cc5)cc4c3=O)cn12 [Example 1, 2-(4-Chlorophenyl)-5-(2-cyclopropyl-3-methylimidazo[1,2-a]pyridin-6-yl)furo[3,2-c]pyridin-4(5H)-one] |
